This note sets out measurements from publication PMC7256108 (Cellular and Molecular Life Sciences: CMLS, 2019).

Type in all cases: cell-based
Test [1] concerns the target T1, OR2W1 L202C (Homo sapiens, UniProt Q9Y3N9, L202C).
T1 construct: full-length gene-specific forward and reverse primers were added; 39aa rho-tag; expressed in transfected cells; host or cells: NxG 108CC15 or HEK-293 cells
T1 sequence (Q9Y3N9 1-320 L202C): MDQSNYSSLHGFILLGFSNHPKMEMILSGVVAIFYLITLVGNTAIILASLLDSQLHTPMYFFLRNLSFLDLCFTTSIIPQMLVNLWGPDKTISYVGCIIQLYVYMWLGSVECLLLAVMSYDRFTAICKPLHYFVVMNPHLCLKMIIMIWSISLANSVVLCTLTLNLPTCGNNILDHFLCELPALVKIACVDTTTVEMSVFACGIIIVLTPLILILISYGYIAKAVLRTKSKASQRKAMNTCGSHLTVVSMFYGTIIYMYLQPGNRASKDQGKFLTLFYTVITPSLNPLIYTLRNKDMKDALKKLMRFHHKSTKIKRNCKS
Kind of test: GloSensor assay, OR2W1 L202C. Here is the method:
(§1) All receptor variants used were generated by PCR-based site-directed mutagenesis in two steps. Gene-specific primers (mutation primers) were used according to Table S2 and Table S3. The mutation primers, which carried the changed nucleotides, were designed overlapping.
(§2) The assay was performed as reported above.
(§3) All data are presented as mean ± SD.

Test [2] concerns the target T2, OR2W1 Y252A (Homo sapiens, UniProt Q9Y3N9, Y252A).
T2 construct: 39aa rho-tag; expressed in transfected cells; host or cells: NxG 108CC15 or HEK-293 cells
T2 sequence (Q9Y3N9 1-320 Y252A): T1 sequence (Q9Y3N9 1-320 L202C) with C202L, Y252A
Kind of test: GloSensor assay, OR2W1 Y252A. Particulars: ligands 300 µmol/L. Here is the method: as §1, §2, §3

The target in test [3] is T3, OR2W1 Y259A (Homo sapiens, UniProt Q9Y3N9, Y259A).
T3 construct: full-length gene-specific forward and reverse primers were added; 39aa rho-tag; expressed in transfected cells; host or cells: NxG 108CC15 or HEK-293 cells
T3 sequence (Q9Y3N9 1-320 Y259A): T1 sequence (Q9Y3N9 1-320 L202C) with C202L, Y259A
Nature of the test: GloSensor assay, OR2W1 Y259A. Particulars: ligands 300 µmol/L. Here is the method: as §1, §2, §3

The target in test [4] is T4, OR2W1 Y252A/Y259A (Homo sapiens, UniProt Q9Y3N9, Y252A/Y259A).
T4 construct: full-length gene-specific forward and reverse primers were added; 39aa rho-tag; expressed in transfected cells; host or cells: NxG 108CC15 or HEK-293 cells
T4 sequence (Q9Y3N9 1-320 Y252A/Y259A): T1 sequence (Q9Y3N9 1-320 L202C) with C202L, Y252A, Y259A
Nature of the test: GloSensor assay, OR2W1 Y252A/Y259A. Particulars: ligands 300 µmol/L. The procedure:
as §1, §2, §3

The target of test [5] is T5, OR2W1 wt (Homo sapiens, UniProt Q9Y3N9).
T5 construct: 39aa rho-tag; expressed in transfected cells; host or cells: NxG 108CC15 or HEK-293 cells
T5 sequence (Q9Y3N9 1-320): T1 sequence (Q9Y3N9 1-320 L202C) with C202L
Nature of the test: cAMP-luminescence GloSensor assay, recombinant OR2W1 wt. Here is the method:
as §2, §3

Test [6] deals with T6, OR2W1 S109A (Homo sapiens, UniProt Q9Y3N9, S109A).
T6 construct: 39aa rho-tag; expressed in transfected cells; host or cells: NxG 108CC15 or HEK-293 cells
T6 sequence (Q9Y3N9 1-320 S109A): T1 sequence (Q9Y3N9 1-320 L202C) with S109A, C202L
Kind of test: GloSensor assay, OR2W1 S109A. The procedure:
as §1, §2, §3

Test [7] addresses T7, OR2W1 L202S (Homo sapiens, UniProt Q9Y3N9, L202S).
T7 construct: 39aa rho-tag; expressed in transfected cells; host or cells: NxG 108CC15 or HEK-293 cells
T7 sequence (Q9Y3N9 1-320 L202S): T1 sequence (Q9Y3N9 1-320 L202C) with C202S
Nature of the test: GloSensor assay, OR2W1 L202S. The procedure: as §1, §2, §3

The target of test [8] is T8, OR1A1 wt (Homo sapiens, UniProt Q9P1Q5).
T8 construct: 39aa rho-tag; expressed in transfected cells; host or cells: NxG 108CC15 or HEK-293 cells
T8 sequence (Q9P1Q5 1-309): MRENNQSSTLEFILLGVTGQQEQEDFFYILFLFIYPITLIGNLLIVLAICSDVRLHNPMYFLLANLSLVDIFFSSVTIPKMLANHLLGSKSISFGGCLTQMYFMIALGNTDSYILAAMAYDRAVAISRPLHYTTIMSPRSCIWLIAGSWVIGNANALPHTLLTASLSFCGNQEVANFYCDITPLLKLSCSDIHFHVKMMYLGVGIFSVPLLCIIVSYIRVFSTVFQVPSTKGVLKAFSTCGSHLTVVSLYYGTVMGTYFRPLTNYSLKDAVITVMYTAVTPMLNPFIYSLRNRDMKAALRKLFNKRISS
Kind of test: cAMP-luminescence GloSensor assay, recombinant OR1A1 wt. Particulars: for EC50: OR1A1 wt. Here is the method: as §2, §3

Test [9] addresses sphingosine-1-phosphate receptor 4 (S1P4). Nature of the test: cAMP-luminescence GloSensor assay, endogenously expressed S1P4. Particulars: footnote b: EC50 in nmol/L. Here is the method:
as §2, §3

In test [10] the target is T9, OR2T11 C119R (Homo sapiens, UniProt Q8NH01, C119R).
T9 construct: expressed in transfected cells; host or cells: NxG 108CC15 or HEK-293 cells
T9 sequence (Q8NH01 whole entry C119R): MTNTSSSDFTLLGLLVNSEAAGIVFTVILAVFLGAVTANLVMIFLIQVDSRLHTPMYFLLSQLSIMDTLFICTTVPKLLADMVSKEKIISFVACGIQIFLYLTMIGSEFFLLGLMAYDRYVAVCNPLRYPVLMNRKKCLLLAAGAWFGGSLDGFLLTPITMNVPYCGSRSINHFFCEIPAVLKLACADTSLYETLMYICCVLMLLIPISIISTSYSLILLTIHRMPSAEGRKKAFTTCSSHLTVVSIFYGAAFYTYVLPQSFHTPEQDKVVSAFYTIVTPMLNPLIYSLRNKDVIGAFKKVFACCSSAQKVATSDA
Nature of the test: GloSensor assay, OR2T11 C119R.
From the text: as §3
Concentration-response relation of 3-mercapto-2-methylpentan-1-ol on OR2M3 in the absence or presence of each 30 µmol/L CuCl2 (a), and 30 µmol/L CuCl2 and the copper chelator TEPA (b). Concentration-response relation of 2-methylpropane-2-thiol on OR2T11 C119R in the absence or presence of 30 µmol/L CuCl2 (c). Concentration-response relation of 3-mercapto-2-methylpentan-1-ol on OR2M3 in the absence or presence of each 30 µmol/L FeCl3 (d); NiCl2 (e); CoCl2 (f); ZnSO4 (g); AgAc (h); AgNO3 (i) and colloidal silver (j). Comparison of efficacies of 20 µmol/L 3-mercapto-2-methylpentan-1-ol on OR2M3 in the absence or presence of different metal ions at 30 µmol/L (k). Note that the same data set in the absence of supplemented Cu^2+ (grey) is given in sub-panels (a-b, d-j) for didactic reasons. Data were mock control-subtracted, normalized to the OR2M3 wt signal in response to 3-mercapto-2-methylpentan-1-ol (20 µmol/L), measured in the absence of Cu^2+ (a-b, d-k) or rather normalized to the OR2T11 C119R signal in response to 2-methylpropan-2-thiol (100 µmol/L), measured in the presence of Cu^2+ (c), and shown as mean ± SD (n = 3 – 6). RLU = relative luminescence unit. 3MMP = 3-mercapto-2-methylpentan-1-ol. Note that for didactical reasons the concentration-response relations in Fig. 1b and Fig. S5a are the identical data set. […]

Test [11] has as its target T10, OR2M3 wt (Homo sapiens, UniProt Q8NG83).
T10 construct: full-length gene-specific forward and reverse primers were added; 39aa rho-tag; expressed in transfected cells; host or cells: NxG 108CC15 or HEK-293 cells
T10 sequence (Q8NG83 1-312): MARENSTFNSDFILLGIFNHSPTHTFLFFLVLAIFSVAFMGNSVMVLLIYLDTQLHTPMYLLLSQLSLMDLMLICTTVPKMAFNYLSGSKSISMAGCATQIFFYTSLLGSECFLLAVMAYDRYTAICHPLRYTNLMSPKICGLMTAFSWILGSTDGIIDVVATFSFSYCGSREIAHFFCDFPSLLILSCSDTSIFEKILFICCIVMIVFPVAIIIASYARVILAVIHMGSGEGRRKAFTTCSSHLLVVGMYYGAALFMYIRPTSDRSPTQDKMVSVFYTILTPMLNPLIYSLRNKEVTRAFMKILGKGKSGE
Kind of test: cAMP-luminescence GloSensor assay, recombinant OR2M3 wt. Particulars: no odorant. The procedure: as §2, §3

Setting [12] is: 10 µmol/L Cu^2+, read-out: EC50 in the presence of Cu^2+.
Setting [13] is: read-out: EC50 in the absence of Cu^2+.
[14] abbreviates: mean ± SD (n = 3–5), read-out: EC50 in the absence of Cu^2+.
[15] abbreviates: EC50 in the presence of Cu^2+, 10 µmol/L Cu^2+.

Numbering of substitutions follows the chain as printed. Where two headings read alike, the source gives them in different places.

In general, EC50 refers to the concentration that produces a half-maximal response.

As to `SCCc1ccccc1` [2-Phenylethanethiol, 2-phenylethanethiol], the concentration giving a half-maximal response (EC50) in [1] (setting [12]) was determined as 63.4 ± 3.77 µM; in test [1] (setting [13]), 65.1 ± 10.8 µM; in test [5] (setting [12]), 106.2 ± 0.93 µM; in test [5] (setting [14]) it was 37.8 ± 0.62 µM; in [6] (setting [12]), 38.9 ± 5.38 µM; in test [6] (setting [13]), 34.4 ± 9.98 µM. Further, the half-maximal effective concentration (EC50) turned out to be 96.7 ± 4.66 µM in [7] (setting [12]), 97 ± 13 µM in test [7] (setting [13]), 73.1 ± 16.4 µM in [8] (setting [12]) and 206 ± 21.5 µM in [8] (setting [13]). Moreover, the “agonist function in mutant receptor” value in test [2], in test [3] and in [4] was “non-functional” in each case. Moreover, in [8] (presence of Cu^2+ at 10 µmol/L), the “efficacy in activating OR1A1” value was “reduced”.

Regarding `COCCN=C1S/C(=C\c2cc(C)n(-c3ccc(F)cc3F)c2C)C(=O)N1C` [CYM50308], the 50% effective concentration (EC50) in [9] (setting [12]) turned out to be 0.344 ± 0.091 µM; in [9] (setting [13]), 0.517 ± 0.0746 µM.

Consider `CC(C)(C)S` [2-methylpropane-2-thiol], for which the Relative amplitude in test [10] (30 µmol/L CuCl2, normalized to OR2T11 C119R signal (100 µmol/L agonist) in the presence of Cu^2+) is recorded as 1. Further, the EC50 in test [10] (presence of 30 µmol/L CuCl2 (footnote d)) was 0.25 ± 0.19 µM.

Regarding `[Cl][Cu][Cl]` [Cu^2+, copper(II) chloride], the “odorant-independent constitutive activity of OR2M3” value in test [11] (Cu^2+ supplementation > 10 µmol/L) was “decreased”. Moreover, the “basal activity of OR2M3” value in test [11] (Cu^2+ supplementation of 10 µmol/L) is listed as “did not inhibit”.

Turning to `C=C(C)[C@@H]1CC=C(C)C(=O)C1` [(R)-(-)-Carvone, (R)-(-)-carvone], the figures for the EC50 in [8] (setting [12]) and in [8] (setting [13]) were 159 ± 43.1 µM and 126 ± 34.1 µM, respectively.

On to `CCCC(S)CCOC(C)=O` (stereo not shown) [3-Mercaptohexyl acetate, 3-mercaptohexyl acetate], for which the EC50 in test [1] (setting [12]) came out at 114 ± 10.5 µM; in test [1] (setting [13]) it was 98.9 ± 7.49 µM; in test [5] (setting [12]), 121 ± 1.59 µM; in test [5] (setting [14]), 132 ± 20.9 µM; in [6] (setting [12]), 127 ± 84.9 µM; in [6] (setting [13]), 146 ± 23 µM. Further, the EC50 stood at 311 ± 22.1 µM in test [7] (setting [12]), 146 ± 6.48 µM in test [7] (setting [13]), 354 ± 113 µM in test [8] (setting [12]) and 405 ± 86.7 µM in test [8] (setting [13]). Also, the “agonist function in mutant receptor” value in test [2], in test [3] and in test [4] was “non-functional” in each case.

`C=CCOC(=O)Cc1ccccc1` [Allyl phenyl acetate, allyl phenyl acetate]: the EC50 was 130 ± 82.5 µM in test [1] (EC50 in the absence of Cu^2+); 73 ± 42.1 µM in test [1] (setting [15]); 64.4 ± 3.58 µM in [5] (EC50 in the absence of Cu^2+, mean ± SD (n = 3–5)); 55.2 ± 8.59 µM in [5] (setting [15]); 46 ± 11.6 µM in test [6] (EC50 in the absence of Cu^2+); 119 ± 19.9 µM in test [6] (setting [15]). Moreover, the EC50 in test [7] (EC50 in the absence of Cu^2+) was determined as 37.6 ± 11.7 µM; in test [7] (setting [15]), 46 ± 14.3 µM. The “agonist function in mutant receptor” value in test [2], in test [3] and in [4] was “non-functional” in each case.
